From ChEMBL document CHEMBL1687820, “Photolysis of hydrogen peroxide, an effective disinfection system via hydroxyl radical formation” (Antimicrob Agents Chemother, 2010) come the findings set out here.

What all share (assay type): functional, organism-based
The test system of experiment [1] is Streptococcus mutans. Briefly: Antibacterial activity against Streptococcus mutans JCM 5705 assessed as reduction of biofilm at 1 M followed by 300 mW of laser irradiation measured within 3 mins by scanning electron microscopy.
Experiment [2] concerns Staphylococcus aureus. The experiment in a line: Antibacterial activity against Staphylococcus aureus ATCC 25923 assessed as reduction of viable organism at 1 M followed by 300 mW of laser irradiation measured within 3 mins.
Experiment [3] concerns Enterococcus faecalis. Briefly: Antibacterial activity against Enterococcus faecalis ATCC 29212 assessed as reduction of viable organism at 1 M followed by 300 mW of laser irradiation measured within 3 mins.
Experiment [4] has as its system Streptococcus mutans. Briefly: Antibacterial activity against Streptococcus mutans JCM 5705 assessed as reduction of viable organism at 1 M followed by 300 mW of laser irradiation measured within 3 mins.
In experiment [5] the test system is Aggregatibacter actinomycetemcomitans. The experiment in a line: Antibacterial activity against Aggregatibacter actinomycetemcomitans JCM 2434 assessed as reduction of viable organism at 1 M followed by 300 mW of laser irradiation measured within 3 mins.
The subject of experiment [6] is Staphylococcus aureus. Briefly: Antibacterial activity against Staphylococcus aureus ATCC 25923 assessed as concentration required to 4 log reduction of viable organism measured after 300 mW of laser irradiation.
Experiment [7] deals with Enterococcus faecalis. Briefly: Antibacterial activity against Enterococcus faecalis ATCC 29212 assessed as concentration required to 4 log reduction of viable organism measured after 300 mW of laser irradiation.
Experiment [8] concerns Streptococcus mutans. The experiment in a line: Antibacterial activity against Streptococcus mutans JCM 5705 assessed as concentration required to 4 log reduction of viable organism measured after 300 mW of laser irradiation.
For experiment [9], the system named is Aggregatibacter actinomycetemcomitans. Briefly: Antibacterial activity against Aggregatibacter actinomycetemcomitans JCM 2434 assessed as concentration required to 4 log reduction of viable organism measured after 300 mW of laser irradiation.
Experiment [10] has as its system Streptococcus mutans. The experiment in a line: Antibacterial activity against Streptococcus mutans JCM 5705 assessed as concentration required to 5 log reduction of biofilm measured after 300 mW of laser irradiation by scanning electron microscopy.
The test system of experiment [11] is Enterococcus faecalis. The experiment in a line: Antibacterial activity against Enterococcus faecalis ATCC 29212 assessed as reduction of viable organism measured after 300 mW of laser irradiation.
For experiment [12], the system named is Streptococcus mutans. Briefly: Antibacterial activity against Streptococcus mutans JCM 5705 assessed as reduction of biofilm measured within 3 mins by scanning electron microscopy.

As for `[OH]`, the log10CFU/ml in the experiment with Streptococcus mutans [1] was more than 5; with Staphylococcus aureus [2], more than 4; in the experiment on Enterococcus faecalis [3], more than 4; in the experiment on Streptococcus mutans [4], 4; in experiment [5], more than 4; with Streptococcus mutans [12], 1. The Activity in the experiment with Staphylococcus aureus [6] was 173 µM; in the experiment with Enterococcus faecalis [7], 258 µM; in the experiment with Streptococcus mutans [8], 173 µM; in experiment [9] it was 89 µM; in the experiment on Streptococcus mutans [10], 258 µM; with Enterococcus faecalis [11] it was “Dose-dependent effect”.
